Experimental data published in the supplement of paper PMC10331698.
± gives the standard deviation of the averaged measurements.

What was measured:
[1] = compound: OCC(F)(F)C(F)(F)C(F)(F)C(F)(F)C(F)(F)C(F)(F)C(F)(F)C(F)(F)C(F)(F)C(F)(F)C(F)(F)F [11:1 Fluorotelomer alcohol]; test: level (log10 ratio to DMSO vehicle control); higher = higher biomarker level / cell amount than vehicle control; conditions: in DMSO
Method: (§1)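 BioMAP Diversity Plus panel of 12 human primary cell co-culture systems (3C, 4H, LPS, SAg, BT, BF4T, BE3C, CASM3C, HDF3CGF, KF3CT, MyoF, Mphg). Compounds were added 1 h before stimulation and left for 24 h (MyoF 48 h; BT 72 h for soluble read-outs or 6 d for IgG). Biomarkers were read by ELISA, cytotoxicity by SRB, PBMC viability and proliferation by Alamar Blue. Each well value was divided by the mean of 8 DMSO control wells on the same plate and log10 transformed; duplicate blinded samples were tested at 4 concentrations.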

[2] = compound: Cc1ccc(S(=O)(=O)OCC(F)(F)C(F)(F)C(F)(F)C(F)(F)C(F)(F)C(F)F)cc1 [1H,1H,7H-Perfluoroheptyl 4-methylbenzenesulfonate]; test: as above; conditions: in DMSO
Method: as §1

| Test System | level (log10) ([1]; 1100 nM) | level (log10) ([1]; 3300 nM) | level (log10) ([1]; 10000 nM) | level (log10) ([2]; 6700 nM) | level (log10) ([2]; 20000 nM) | level (log10) ([2]; 60000 nM) |
| --- | --- | --- | --- | --- | --- | --- |
| 3C:CD87/uPAR | -0.024 ± 0.023 | -0.013 ± 0.024 | -0.003 ± 0.011 | -0.018 ± 0.0014 | 0.004 ± 0.017 | -0.027 ± 0.024 |
| 3C:CXCL8/IL-8 | -0.022 ± 0.027 | -0.0245 ± 0.046 | 0.019 ± 0.082 | -0.0075 ± 0.0021 | -0.0245 ± 0.0078 | -0.061 ± 0.017 |
| 3C:CXCL9/MIG | -0.001 ± 0.014 | 0.0045 ± 0.0064 | 0.0145 ± 0.016 | 0.005 ± 0.011 | -0.008 ± 0.0014 | -0.01 ± 0.0042 |
| 3C:HLA-DR | -0.019 ± 0.0042 | -0.034 ± 0.011 | -0.04 ± 0.016 | 0.0215 ± 0.016 | 0.0165 ± 0.0021 | 0.0085 ± 0.022 |
| 3C:Proliferation | -0.189 ± 0.012 | -0.436 ± 0.042 | -0.338 ± 0.051 | -0.02 ± 0.014 | -0.033 ± 0.014 | -0.12 ± 0.086 |
| 3C:SRB | -0.043 ± 0.0014 | -0.115 ± 0.021 | -0.116 ± 0.014 | 0.006 ± 0.0071 | -0.016 ± 0.013 | -0.125 ± 0.0042 |
| 4H:CCL2/MCP-1 | 0.0335 ± 0.033 | 0.0495 ± 0.00071 | 0.0835 ± 0.023 | -0.0455 ± 0.023 | -0.098 ± 0.0071 | -0.178 ± 0.05 |
| 4H:CCL26/Eotaxin-3 | 0.0025 ± 0.0035 | -0.0055 ± 0.0092 | -0.0085 ± 0.0078 | 0.007 ± 0.0057 | -0.0015 ± 0.013 | -0.057 ± 0.052 |
| 4H:CD62P/P-selectin | -0.111 ± 0.042 | -0.095 ± 0.079 | -0.139 ± 0.13 | 0.052 ± 0.033 | 0.002 ± 0.035 | 0.149 ± 0.012 |
| 4H:CD87/uPAR | -0.0285 ± 0.037 | -0.0415 ± 0.028 | 0 ± 0.059 | 0.005 ± 0.0071 | 0.011 ± 0.02 | -0.117 ± 0.032 |
| 4H:CD106/VCAM-1 | 0.0285 ± 0.022 | 0.0115 ± 0.057 | 0.024 ± 0.038 | -0.0065 ± 0.0078 | -0.032 ± 0.013 | -0.0295 ± 0.011 |
| 4H:SRB | -0.0105 ± 0.0092 | -0.0195 ± 0.0035 | -0.0005 ± 0.025 | 0.0005 ± 0.026 | -0.002 ± 0.011 | -0.0605 ± 0.0078 |
| 4H:VEGFR2 | -0.027 ± 0.023 | -0.0135 ± 0.033 | -0.008 ± 0.048 | 0.005 ± 0.018 | 0.017 ± 0.011 | 0.01 |
| BE3C:CD54/ICAM-1 | -0.0245 ± 0.00071 | -0.054 ± 0.0099 | -0.025 ± 0.0028 | 0.014 ± 0.0057 | -0.023 ± 0.02 | -0.012 ± 0.0014 |
| BE3C:CD87/uPAR | -0.035 ± 0.0014 | -0.0795 ± 0.012 | -0.0385 ± 0.026 | 0.026 ± 0.017 | -0.004 ± 0.0085 | 0.005 ± 0.033 |
| BE3C:CXCL8/IL-8 | -0.086 ± 0.011 | -0.158 ± 0.055 | -0.0975 ± 0.042 | -0.0345 ± 0.042 | -0.12 ± 0.059 | -0.126 ± 0.028 |
| BE3C:CXCL9/MIG | -0.0195 ± 0.00071 | -0.03 ± 0.0028 | -0.0385 ± 0.022 | 0.005 ± 0.016 | -0.001 ± 0.0028 | 0.0005 ± 0.021 |

| Test System | level (log10) ([1]; 1100 nM) | level (log10) ([1]; 3300 nM) | level (log10) ([1]; 10000 nM) | level (log10) ([2]; 6700 nM) | level (log10) ([2]; 20000 nM) | level (log10) ([2]; 60000 nM) |
| --- | --- | --- | --- | --- | --- | --- |
| BE3C:CXCL10/IP-10 | -0.0345 ± 0.035 | -0.0745 ± 0.03 | -0.043 ± 0.0071 | -0.0095 ± 0.0092 | -0.033 ± 0.016 | -0.015 ± 0.0014 |
| BE3C:CXCL11/I-TAC | -0.0085 ± 0.018 | -0.025 ± 0.024 | -0.005 ± 0.013 | -0.0205 ± 0.0064 | -0.0385 ± 0.00071 | -0.0185 ± 0.019 |
| BE3C:EGFR | -0.022 ± 0.011 | -0.003 ± 0.018 | -0.019 ± 0.0099 | -0.0255 ± 0.0035 | -0.03 ± 0.035 | -0.027 ± 0.0028 |
| BE3C:HLA-DR | -0.0755 ± 0.037 | -0.141 ± 0.015 | -0.163 ± 0.0042 | -0.0155 ± 0.005 | -0.0195 ± 0.012 | -0.025 ± 0.0014 |
| BE3C:IL-1alpha | -0.011 ± 0.018 | -0.0325 ± 0.0021 | -0.029 ± 0.02 | 0.01 ± 0.0085 | -0.003 ± 0.018 | 0.071 ± 0.061 |
| BF4T:CCL2/MCP-1 | 0.018 ± 0.042 | 0.0235 ± 0.021 | 0.031 ± 0.023 | -0.026 ± 0.018 | -0.124 ± 0.0085 | -0.0585 ± 0.022 |
| BF4T:CCL26/Eotaxin-3 | -0.012 ± 0.0042 | -0.003 ± 0.011 | -0.0015 ± 0.0078 | -0.0095 ± 0.046 | -0.077 ± 0.068 | -0.095 ± 0.018 |
| BF4T:CD54/ICAM-1 | -0.0125 ± 0.005 | -0.015 ± 0.018 | -0.0015 ± 0.00071 | -0.0055 ± 0.018 | -0.01 ± 0.0028 | -0.021 ± 0.0085 |
| BF4T:CD90 | 0.0025 ± 0.011 | -0.0025 ± 0.011 | 0.002 ± 0.0042 | -0.0095 ± 0.0064 | -0.015 ± 0.014 | -0.0175 ± 0.0092 |
| BF4T:CD106/VCAM-1 | 0.0045 ± 0.016 | -0.021 ± 0.025 | -0.016 ± 0.02 | 0.009 ± 0.042 | 0.024 ± 0.0014 | -0.0055 ± 0.04 |
| BF4T:CXCL8/IL-8 | 0.001 ± 0.0057 | 0.0145 ± 0.037 | 0.028 ± 0.042 | -0.0195 ± 0.012 | -0.0615 ± 0.012 | -0.0515 ± 0.011 |
| BF4T:IL-1alpha | -0.016 ± 0.0014 | -0.0125 ± 0.013 | 0.0025 ± 0.0021 | -0.008 ± 0.0085 | 0.022 ± 0.018 | 0.04 ± 0.034 |
| BF4T:Keratin 8/18 | 0.0025 ± 0.026 | -0.009 ± 0.03 | -0.0075 ± 0.025 | 0.0085 ± 0.039 | 0.005 ± 0.028 | -0.0285 ± 0.028 |
| BF4T:MMP-1 | -0.0095 ± 0.005 | -0.01 | -0.0015 ± 0.016 | 0.0105 ± 0.046 | -0.018 ± 0.038 | 0.013 ± 0.037 |
| BF4T:MMP-3 | 0.008 ± 0.0014 | 0.009 ± 0.0057 | 0.0435 ± 0.035 | -0.006 ± 0.0014 | -0.031 ± 0.0014 | -0.018 ± 0.0085 |
| BF4T:MMP-9 | -0.025 ± 0.03 | -0.02 ± 0.0071 | -0.03 ± 0.0057 | 0.0045 ± 0.012 | -0.008 ± 0.011 | -0.0435 ± 0.023 |
| BF4T:PAI-I | -0.003 ± 0.011 | -0.003 ± 0.0042 | 0.002 ± 0.027 | -0.0075 ± 0.025 | -0.0295 ± 0.011 | -0.0315 ± 0.0035 |
